# Activity calls are given as the source filed them. No cut-off for these calls is given here.
# Legend:
# [1] = molecular target: Fibroblast growth factor receptor 3 (Homo sapiens) (UniProt P22607); experiment: Inhibition of FGFR3 (unknown origin) at 10 uM by biochemical hotspot kinase assay relative to control
# [2] = molecular target: Hepatocyte growth factor receptor (Homo sapiens) (UniProt P08581); experiment: Inhibition of c-MET (unknown origin) at 10 uM by biochemical hotspot kinase assay relative to control
# [3] = molecular target: Ephrin type-A receptor 3 (Homo sapiens) (UniProt P29320); experiment: Inhibition of EPHA3 (unknown origin) at 10 uM by biochemical hotspot kinase assay relative to control
# [4] = molecular target: Epidermal growth factor receptor (Homo sapiens) (UniProt P00533); experiment: Inhibition of EGFR (unknown origin) at 10 uM by biochemical hotspot kinase assay
# [5] = molecular target: Protein kinase C alpha type (Homo sapiens) (UniProt P17252); experiment: Inhibition of PKCa (unknown origin) at 10 uM by biochemical hotspot kinase assay
# [6] = molecular target: Cyclin-dependent kinase 1/cyclin B (Homo sapiens) (UniProt P06493+P14635+Q8WWL7+O95067); experiment: Inhibition of CDK1/cyclin B (unknown origin) at 10 uM by biochemical hotspot kinase assay; assay type: protein-complex assay
# [7] = molecular target: Cyclin-dependent kinase 2/cyclin A (Homo sapiens) (UniProt P24941+P20248+P78396); experiment: Inhibition of CDK2/cyclin A (unknown origin) at 10 uM by biochemical hotspot kinase assay; assay type: protein-complex assay
# [8] = molecular target: Mitogen-activated protein kinase 3 (Homo sapiens) (UniProt P27361); experiment: Inhibition of ERK1 (unknown origin) at 10 uM by biochemical hotspot kinase assay
# [9] = molecular target: Mitogen-activated protein kinase 7 (Homo sapiens) (UniProt Q13164); experiment: Inhibition of ERK5 (unknown origin) at 10 uM by biochemical hotspot kinase assay
# [10] = molecular target: Mitogen-activated protein kinase 15 (Homo sapiens) (UniProt Q8TD08); experiment: Inhibition of ERK7 (unknown origin) at 10 uM by biochemical hotspot kinase assay
# [11] = molecular target: Mitogen-activated protein kinase kinase kinase kinase 4 (Homo sapiens) (UniProt O95819); experiment: Inhibition of HGK (unknown origin) at 10 uM by biochemical hotspot kinase assay relative to control
# [12] = molecular target: Calcium/calmodulin-dependent protein kinase type II subunit beta (Homo sapiens) (UniProt Q13554); experiment: Inhibition of CAMK2B (unknown origin) at 10 uM by biochemical hotspot kinase assay relative to control
# [13] = molecular target: Serine/threonine-protein kinase Chk2 (Homo sapiens) (UniProt O96017); experiment: Inhibition of CHK2 (unknown origin) at 10 uM by biochemical hotspot kinase assay relative to control
# [14] = molecular target: Wee1-like protein kinase (Homo sapiens) (UniProt P30291); experiment: Inhibition of WEE1 (unknown origin) at 10 uM by biochemical hotspot kinase assay
# [15] = tested on: HOP-92; experiment: Antiproliferative activity against human HOP-92 cells assessed as cell growth inhibition at 10 uM by SRB assay relative to control; assay type: functional
# [16] = tested on: SF-268; experiment: Antiproliferative activity against human SF-268 cells assessed as cell growth inhibition at 10 uM by SRB assay relative to control; assay type: functional
# [17] = tested on: SK-MEL-2; experiment: Antiproliferative activity against human SK-MEL-2 cells assessed as cell growth inhibition at 10 uM by SRB assay relative to control; assay type: functional; conditions: Homo sapiens, SK-MEL-2, dose 10 µM
# [18] = tested on: M14; experiment: Antiproliferative activity against human M14 cells assessed as cell growth inhibition at 10 uM by SRB assay relative to control; assay type: functional
# [19] = tested on: T47D; experiment: Antiproliferative activity against estrogen receptor positive human T47D cells assessed as inhibition of cell growth at 10 uM by SRB assay; assay type: functional, cell-based
# Sequence of Calcium/calmodulin-dependent protein kinase type II subunit beta (Homo sapiens) (Q13554 whole entry): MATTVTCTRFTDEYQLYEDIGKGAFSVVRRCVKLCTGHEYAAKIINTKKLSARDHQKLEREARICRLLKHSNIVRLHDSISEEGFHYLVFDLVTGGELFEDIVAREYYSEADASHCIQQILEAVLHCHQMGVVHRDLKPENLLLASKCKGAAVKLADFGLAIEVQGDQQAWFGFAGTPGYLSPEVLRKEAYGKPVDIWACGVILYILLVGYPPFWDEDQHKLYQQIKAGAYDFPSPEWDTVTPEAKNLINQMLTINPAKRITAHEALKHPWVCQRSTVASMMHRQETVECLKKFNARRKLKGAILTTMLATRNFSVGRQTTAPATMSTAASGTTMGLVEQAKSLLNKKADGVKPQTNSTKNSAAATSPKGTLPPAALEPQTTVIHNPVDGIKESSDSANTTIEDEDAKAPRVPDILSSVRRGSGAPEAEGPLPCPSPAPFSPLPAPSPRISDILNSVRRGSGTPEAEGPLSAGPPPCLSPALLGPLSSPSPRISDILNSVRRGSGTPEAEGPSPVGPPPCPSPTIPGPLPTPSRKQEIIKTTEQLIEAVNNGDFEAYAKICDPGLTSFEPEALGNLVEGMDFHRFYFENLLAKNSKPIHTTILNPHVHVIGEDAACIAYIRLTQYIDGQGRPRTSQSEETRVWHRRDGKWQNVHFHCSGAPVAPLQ
# Sequence of Mitogen-activated protein kinase 7 (Homo sapiens) (Q13164 2-816 limits assumed): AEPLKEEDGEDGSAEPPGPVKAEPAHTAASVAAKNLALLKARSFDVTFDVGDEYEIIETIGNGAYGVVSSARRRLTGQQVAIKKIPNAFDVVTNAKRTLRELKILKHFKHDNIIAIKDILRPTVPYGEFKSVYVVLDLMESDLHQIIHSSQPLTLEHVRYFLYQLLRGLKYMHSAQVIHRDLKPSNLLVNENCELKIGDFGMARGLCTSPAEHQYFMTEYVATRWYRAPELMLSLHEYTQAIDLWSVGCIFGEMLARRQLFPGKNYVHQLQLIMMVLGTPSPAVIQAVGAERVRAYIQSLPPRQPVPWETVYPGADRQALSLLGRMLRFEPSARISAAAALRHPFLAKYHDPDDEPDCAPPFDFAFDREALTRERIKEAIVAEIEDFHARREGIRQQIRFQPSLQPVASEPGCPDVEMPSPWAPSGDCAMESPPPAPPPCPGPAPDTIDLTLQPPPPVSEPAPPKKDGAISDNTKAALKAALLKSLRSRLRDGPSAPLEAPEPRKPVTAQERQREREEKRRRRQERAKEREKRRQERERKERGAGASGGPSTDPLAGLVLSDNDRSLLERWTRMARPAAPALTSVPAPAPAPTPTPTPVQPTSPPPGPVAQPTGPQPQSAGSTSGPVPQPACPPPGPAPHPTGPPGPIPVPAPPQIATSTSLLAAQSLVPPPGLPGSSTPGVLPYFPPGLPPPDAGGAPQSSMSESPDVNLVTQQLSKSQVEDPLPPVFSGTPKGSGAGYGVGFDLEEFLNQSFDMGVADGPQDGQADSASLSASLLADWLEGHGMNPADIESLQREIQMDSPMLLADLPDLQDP
# Sequence of Wee1-like protein kinase (Homo sapiens) (P30291 whole entry, looked up): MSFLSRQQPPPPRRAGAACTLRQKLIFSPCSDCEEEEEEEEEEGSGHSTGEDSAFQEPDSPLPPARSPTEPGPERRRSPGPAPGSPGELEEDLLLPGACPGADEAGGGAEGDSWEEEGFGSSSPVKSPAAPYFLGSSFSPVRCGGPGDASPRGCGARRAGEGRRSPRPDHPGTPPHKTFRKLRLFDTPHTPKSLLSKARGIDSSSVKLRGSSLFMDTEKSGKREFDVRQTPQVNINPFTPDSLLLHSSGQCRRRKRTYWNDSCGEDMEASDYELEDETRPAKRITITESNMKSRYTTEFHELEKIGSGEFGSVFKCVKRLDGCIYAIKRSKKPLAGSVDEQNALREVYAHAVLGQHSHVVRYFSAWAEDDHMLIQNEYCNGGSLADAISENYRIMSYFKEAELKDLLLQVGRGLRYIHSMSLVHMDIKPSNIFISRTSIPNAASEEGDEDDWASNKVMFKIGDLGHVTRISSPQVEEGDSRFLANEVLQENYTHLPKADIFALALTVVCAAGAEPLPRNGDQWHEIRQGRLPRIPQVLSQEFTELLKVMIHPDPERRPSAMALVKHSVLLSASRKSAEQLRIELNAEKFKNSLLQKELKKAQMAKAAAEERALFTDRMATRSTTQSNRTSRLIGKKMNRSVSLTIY
# Sequence of Mitogen-activated protein kinase kinase kinase kinase 4 (Homo sapiens) (O95819 2-1239 limits assumed): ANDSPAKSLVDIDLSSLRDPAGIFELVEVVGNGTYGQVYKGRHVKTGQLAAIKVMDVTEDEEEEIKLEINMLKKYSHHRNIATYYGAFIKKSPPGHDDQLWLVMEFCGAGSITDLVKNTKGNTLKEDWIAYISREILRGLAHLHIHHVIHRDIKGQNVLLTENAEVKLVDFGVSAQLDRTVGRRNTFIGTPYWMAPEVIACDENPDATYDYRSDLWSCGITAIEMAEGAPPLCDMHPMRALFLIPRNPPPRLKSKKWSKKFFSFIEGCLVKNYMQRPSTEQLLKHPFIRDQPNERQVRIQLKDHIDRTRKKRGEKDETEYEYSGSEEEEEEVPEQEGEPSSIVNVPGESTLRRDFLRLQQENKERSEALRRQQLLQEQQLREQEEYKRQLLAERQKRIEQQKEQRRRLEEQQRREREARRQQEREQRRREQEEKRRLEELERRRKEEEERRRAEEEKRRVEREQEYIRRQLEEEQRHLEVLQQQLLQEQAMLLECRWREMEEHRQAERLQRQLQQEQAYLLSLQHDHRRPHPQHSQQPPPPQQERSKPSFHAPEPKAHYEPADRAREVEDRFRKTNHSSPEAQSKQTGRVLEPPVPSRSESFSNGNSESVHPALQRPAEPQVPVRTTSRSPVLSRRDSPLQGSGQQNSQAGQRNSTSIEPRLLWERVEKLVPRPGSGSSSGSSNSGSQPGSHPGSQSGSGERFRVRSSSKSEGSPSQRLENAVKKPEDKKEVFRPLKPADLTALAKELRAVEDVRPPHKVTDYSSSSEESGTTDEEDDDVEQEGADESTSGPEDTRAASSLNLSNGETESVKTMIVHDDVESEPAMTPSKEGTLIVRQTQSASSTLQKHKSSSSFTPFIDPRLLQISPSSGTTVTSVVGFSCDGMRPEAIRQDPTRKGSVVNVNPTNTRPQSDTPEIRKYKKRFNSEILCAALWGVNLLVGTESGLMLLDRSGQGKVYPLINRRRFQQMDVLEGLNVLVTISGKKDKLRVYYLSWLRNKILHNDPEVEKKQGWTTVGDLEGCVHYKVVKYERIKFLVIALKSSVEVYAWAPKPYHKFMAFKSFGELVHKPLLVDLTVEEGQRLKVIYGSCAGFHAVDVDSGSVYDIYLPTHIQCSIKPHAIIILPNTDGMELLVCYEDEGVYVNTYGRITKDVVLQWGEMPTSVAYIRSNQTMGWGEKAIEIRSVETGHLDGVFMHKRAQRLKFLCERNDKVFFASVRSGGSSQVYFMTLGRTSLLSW
# Sequence of Fibroblast growth factor receptor 3 (Homo sapiens) (P22607 23-806 limits assumed): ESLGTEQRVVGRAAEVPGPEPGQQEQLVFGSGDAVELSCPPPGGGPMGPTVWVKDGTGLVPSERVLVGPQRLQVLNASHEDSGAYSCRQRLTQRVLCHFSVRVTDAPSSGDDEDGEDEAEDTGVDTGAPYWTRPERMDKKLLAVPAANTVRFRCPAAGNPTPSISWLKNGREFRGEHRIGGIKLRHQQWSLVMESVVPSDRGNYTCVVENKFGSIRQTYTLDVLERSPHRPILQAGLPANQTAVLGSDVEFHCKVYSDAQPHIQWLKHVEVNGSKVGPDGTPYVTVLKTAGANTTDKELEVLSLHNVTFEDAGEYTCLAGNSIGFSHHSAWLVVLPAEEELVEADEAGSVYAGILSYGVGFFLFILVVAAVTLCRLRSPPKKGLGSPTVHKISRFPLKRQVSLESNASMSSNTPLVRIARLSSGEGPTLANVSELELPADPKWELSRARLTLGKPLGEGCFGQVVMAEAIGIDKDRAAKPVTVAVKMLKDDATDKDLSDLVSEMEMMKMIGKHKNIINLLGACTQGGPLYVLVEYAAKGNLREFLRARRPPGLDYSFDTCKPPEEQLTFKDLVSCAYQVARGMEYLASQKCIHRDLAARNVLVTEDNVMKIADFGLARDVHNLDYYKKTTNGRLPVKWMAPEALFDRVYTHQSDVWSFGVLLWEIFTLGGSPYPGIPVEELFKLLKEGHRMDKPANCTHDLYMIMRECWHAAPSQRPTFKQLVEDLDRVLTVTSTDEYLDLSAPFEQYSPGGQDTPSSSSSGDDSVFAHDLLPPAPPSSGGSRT
# Sequence of Serine/threonine-protein kinase Chk2 (Homo sapiens) (O96017 whole entry): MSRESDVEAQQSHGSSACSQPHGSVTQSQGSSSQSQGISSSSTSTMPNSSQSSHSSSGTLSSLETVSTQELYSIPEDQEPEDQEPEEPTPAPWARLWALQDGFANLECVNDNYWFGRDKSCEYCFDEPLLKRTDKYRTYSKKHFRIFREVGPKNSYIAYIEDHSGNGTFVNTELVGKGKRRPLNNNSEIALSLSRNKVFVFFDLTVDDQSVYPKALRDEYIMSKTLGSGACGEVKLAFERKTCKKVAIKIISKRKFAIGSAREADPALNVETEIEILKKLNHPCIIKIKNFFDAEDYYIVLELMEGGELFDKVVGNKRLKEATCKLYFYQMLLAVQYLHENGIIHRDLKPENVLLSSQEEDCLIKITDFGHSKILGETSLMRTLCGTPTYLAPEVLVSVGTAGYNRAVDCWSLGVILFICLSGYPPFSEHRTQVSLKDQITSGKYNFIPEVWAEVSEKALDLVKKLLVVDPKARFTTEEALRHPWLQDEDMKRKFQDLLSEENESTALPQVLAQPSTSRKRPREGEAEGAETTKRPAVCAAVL
# Sequence of Mitogen-activated protein kinase 3 (Homo sapiens) (P27361 whole entry): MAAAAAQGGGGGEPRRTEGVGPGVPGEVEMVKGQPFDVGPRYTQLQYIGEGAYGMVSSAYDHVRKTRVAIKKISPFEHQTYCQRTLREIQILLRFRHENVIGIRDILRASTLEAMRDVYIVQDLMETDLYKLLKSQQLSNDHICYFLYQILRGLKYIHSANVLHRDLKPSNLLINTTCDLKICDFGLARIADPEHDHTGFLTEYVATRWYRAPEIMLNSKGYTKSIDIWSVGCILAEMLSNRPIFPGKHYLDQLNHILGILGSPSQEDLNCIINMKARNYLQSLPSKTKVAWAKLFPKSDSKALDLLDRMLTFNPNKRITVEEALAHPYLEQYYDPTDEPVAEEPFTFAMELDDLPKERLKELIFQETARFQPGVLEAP
inhibition [1],inhibition [2],inhibition [3],inhibition [4],inhibition [5],inhibition [6],inhibition [7],inhibition [8],inhibition [9],inhibition [11],inhibition [12],inhibition [13],inhibition [14],SMILES,inhibition [10],inhibition at 10 µM [15],inhibition at 10 µM [16],inhibition at 10 µM [17],inhibition at 10 µM [18],inhibition [19]
0.26%,27.1%,7.95%,inactive,inactive,inactive,inactive,inactive,inactive,48.8%,1.99%,6.31%,inactive,COc1cc2oc(-c3cccc(C(=O)Nc4ccc(C)cc4)c3)cc(=O)c2c(OC)c1OC,inactive,,,,,
,,,,,,,,,,,,,COc1cc2oc(-c3cccc(C(=O)Nc4ccc(Cl)cc4)c3)cc(=O)c2c(OC)c1OC,,87.2%,> 50%,68.6%,107%,Active

# Source: ChEMBL document CHEMBL5260845, “Flavone-based arylamides as potential anticancers: Design, synthesis and in vitro cell-based/cell-free evaluations” (2020)
